“Also recorded” adds a separate entry of the source.
Tests used:
[1] = test system: γ-secretase (PS1, PS2) knockout HEK 293T cells; assay: PS1 KO, PS2 KO and PS1/2 dKO HEK 293T cell lines: α-CTF and Aβ40; type: cell-based, human; details: PS1 and PS2 double knockout HEK 293T cells
Protocol: (§1) • a) A plasmid expressing the target protein in mammalian cells was constructed, and the protein expression promoter is CAG. • b) The target protein was expressed in HEK 293T cell line. Cells were subcultured one day before transfection, and transfection was performed when the degree of cell adhesion reached 70%-80%. The transfection reagent was lipofectamine2000 (ThermoFisher). • c) 4-6 hours post transfection, the medium were replaced with fresh cell culture medium. • d) 36-48 hours post transfection, the cells were lysed (10% 1M tris-HCl (pH=6.8), 4% SDS, 20% glycerol, 0.01% bromophenol blue), and the protein samples were collected and used for Western blot or stored in a −80° C. freezer. • e) Polyacrylamide gel electrophoresis. Before protein loading, the protein was boiled at 98° C. for 10 min, and then centrifuged at 12000 rpm for 10 min. Electrophoresis: 80V for the upper stacking gel; 120V for the lower separating gel. • f) Protein transfer. […]

[2] = test system: primary cultured mouse hippocampal or cortical neurons; assay: Endogenous Aβ40 in primary cultured mouse cortical or hippocampal neurons (lentivirus, ELISA); type: cell-based; details: primary cultured mouse neurons; lentivirus; vs GFP control
Protocol: Primary cultured neurons were derived from the cortex or hippocampus of 16-day embryonic mice. The mouse cortex or hippocampus was obtained under a stereoscope, and was digested at 37° C. for 10 minutes with 20 U/ml papain (Worthington Company). After digestion, the neurons that exist in single-cell form were seeded with 100,000 neurons per well (24-well plate); the neurons were cultured in the neuron culture medium (Neurobasal medium; ThermoFisher Company) containing 2% B27 (ThermoFisher Company) and 1% penicillin/streptomycin; the fresh culture medium was changed once a week.
The experiment was performed according to the standard procedure in the ELISA analysis kit of Invitrogen Company. • a) The target protein was expressed in HEK 293T cell line. Cells were subcultured one day before transfection, and transfection was performed when the degree of cell adhesion reached 70%-80%. […]
48 hours after transfection of HEK 293T cells and N2A cells, or 4.5 days after lentivirus infection of neurons, media and lysates were collected. Aβ40 and Aβ42 in the culture medium and cell lysates were detected by an Aβ ELISA kit as indicated in the protocol. […]

[3] = test system: HEK 293T cells expressing APP; assay: APP-expressing HEK 293T cells co-incubated with culture medium containing secreted ApoE2 or ApoE CT: α-CTF; type: cell-based, human; details: vs GFP control
Protocol: as §1

For “ApoE2: human apolipoprotein E2, full-length 299 amino acid residues, SEQ ID NO: 12”, the “α-CTF in PS1/2 dKO cells” value [1] was “did not further increase α-CTF levels”, the “endogenously produced Aβ40” value [2] was “can reduce endogenously produced Aβ40; also recorded: could reduce the endogenous Aβ40” and the “α-CTF produced by APP in cells co-incubated with protein in culture medium” value [3] was “does not significantly alter α-CTF levels; also recorded: does not change the α-CTF; also recorded: does not alter the α-CTF”.

From patent publication US20250108100A1, “C-TERMINAL FRAGMENT OF APOLIPOPROTEIN E AND APPLICATION THEREOF IN INHIBITING y-SECRETASE ACTIVITY” (SYNPHATEC (SHANGHAI) BIOPHARMACEUTICAL TECHNOLOGY CO., LTD., priority 2022, published 2025)
